Consider 3 compounds from ChEMBL document CHEMBL4196047, “Discovery and evolution of aloperine derivatives as novel anti-filovirus agents through targeting entry stage” (Eur J Med Chem, 2018).

Data set [1] has as its system Marburgvirus. Nature of the data set: Antiviral activity against HIV1 pseudotyped MARV infected in BALB/c mouse at 100 ug, iv and ip measured at day 4 by bioluminescence assay relative to control. In kind it is functional.
The subject of data set [2] is Ebolavirus. Briefly: Antiviral activity against HIV1 pseudotyped EBOV infected in HEK293T cells assessed as inhibition of late stage viral entry at 25 uM treated during infection measured after 72 hrs by luciferase reporter gene assay relative to control. It is filed as functional. The following applies: Orthoebolavirus, HEK-293T.
Data set [3] is described as follows: in vitro. The following applies: human, HEK293T cells.
For data set [4], the system named is HEK-293T. Briefly: Inhibition of endosomal acidification in HEK293T cells at 20 to 40 uM after 1 hr by LysoTracker Red dye-based confocal fluorescence microscopic analysis. In kind it is functional, cell-based. The following applies: Homo sapiens.
Data set [5] in a line: Half life in BALB/c mouse at 25 mg/kg, po. It is filed as ADME, organism-based. The following applies: in vivo.
The subject of data set [6] is Vesicular stomatitis virus. Briefly: microbe, parasite or virus in culture. In kind it is functional, organism-based. The following applies: HEK-293T.
A short description of data set [7]: AUC (0 to t) in BALB/c mouse at 25 mg/kg, po. In kind it is ADME, organism-based. The following applies: in vivo.
The nature of data set [8]: Toxicity in ig dosed Kunming mouse administered as single dose measured for 7 days. It is filed as organism-based. The following applies: in vivo, po.
A short description of data set [9]: in vitro. The following applies: human, HEK293T cells. The source holds these as a separate data set.
Data set [10] concerns the target Procathepsin L (Homo sapiens) (UniProt P07711). Briefly: Inhibition of cathepsin L in HEK293 cells using N-benzyloxycarbonyl-L-phenylalanyl-L-arginine-7-amido-4-methylcoumarin as substrate. In kind it is cell-based.
Data set [11] in a line: in vitro. The following applies: human, HEK293T cells. The source holds these as a separate data set.
Data set [12] has as its system Ebolavirus. Nature of the data set: Antiviral activity against HIV1 pseudotyped EBOV infected in HEK293T cells assessed as inhibition of late stage viral entry at 25 uM treated for 1 hr post infection measured after 72 hrs by luciferase reporter gene assay relative to control. In kind it is functional. The following applies: Orthoebolavirus, HEK-293T.
The test system of data set [13] is Ebolavirus. Briefly: microbe, parasite or virus in culture. It is filed as functional, cell-based. The following applies: Orthoebolavirus, HEK-293T.
Data set [14] is described as follows: Toxicity in ip dosed Kunming mouse administered as single dose measured for 7 days. The following applies: in vivo. It is filed as organism-based.
Data set [15] can be described thus: Tmax in BALB/c mouse at 25 mg/kg, po. In kind it is ADME, organism-based. The following applies: in vivo.
The nature of data set [16]: Cmax in BALB/c mouse at 25 mg/kg, po. In kind it is ADME, organism-based. Also on record: dose 25 mg/kg, route oral. The following applies: in vivo.
Data set [17] addresses Cathepsin B (Homo sapiens) (UniProt P07858). Nature of the data set: Inhibition of cathepsin B in HEK293 cells using N-benzyloxycarbonyl-L-arginyl-L-arginine-7-amido-4-methylcoumarin as substrate. It is filed as cell-based.
Data set [18] can be described thus: AUC (0 to infinity) in BALB/c mouse at 25 mg/kg, po. In kind it is ADME, organism-based. The arrangement: dose 25 mg/kg, time infinity, route oral. The following applies: in vivo.
Data set [19] deals with Ebolavirus. Nature of the data set: Antiviral activity against HIV1 pseudotyped EBOV infected in HEK293T cells assessed as inhibition of late stage viral entry at 25 uM treated for 1 hr before infection measured after 72 hrs by luciferase reporter gene assay relative to control. In kind it is functional. The following applies: Orthoebolavirus, HEK-293T.
Data set [20] has as its system Marburgvirus. Nature of the data set: microbe, parasite or virus in culture. It is filed as functional, organism-based. The following applies: Orthomarburgvirus, HEK-293T.
Data set [21] is described as follows: Toxicity in iv dosed Kunming mouse administered as single dose measured for 7 days. In kind it is organism-based. The following applies: in vivo.
Data set [22] in a line: MRT in BALB/c mouse at 25 mg/kg, po. It is filed as ADME, organism-based. The following applies: in vivo.
Data set [23] concerns HEK-293T. Briefly: Inhibition of endosomal acidification in HEK293T cells at […] after 1 hr by LysoTracker Red dye-based confocal fluorescence microscopic analysis. In kind it is functional, cell-based. The following applies: Homo sapiens.

Structures are written as SMILES. Active and inactive are the calls of the source. No cut-off for these calls is given here. Where only a bound is given, the exact number is not on record here.

Chain of Procathepsin L (Homo sapiens) (P07711 114-333 limits assumed): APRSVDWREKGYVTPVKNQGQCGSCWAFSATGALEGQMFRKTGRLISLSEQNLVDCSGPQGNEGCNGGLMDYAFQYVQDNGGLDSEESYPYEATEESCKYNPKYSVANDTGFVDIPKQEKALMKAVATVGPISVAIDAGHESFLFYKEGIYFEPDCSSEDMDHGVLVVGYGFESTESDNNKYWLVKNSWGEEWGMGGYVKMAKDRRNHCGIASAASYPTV

As for `Clc1ccc(CN2CCCC3=C[C@H]4C[C@H](CN5CCCC[C@H]45)[C@@H]32)cc1Cl`, the Activity in data set [1] is 45%. The values for the inhibition at 25 µM in data set [2], in data set [12] and in data set [19] were 23 to 66%, 85% and under 38%, respectively. Besides, the selectivity ratio in data set [3] is over 28.2; in data set [11], over 41.7. In addition, the inhibition result in data set [4] and in data set [10] was “inactive” each time. In data set [5], this compound showed a half-life of 4.14 h. Besides, the EC50 in data set [6] was over 200 µM; in data set [13], 4.8 µM; in data set [20], 7.1 µM. In data set [7], this compound came in with an AUC(0-t) of 2.74 µM·h. The 50% lethal dose (LD50) at 168 h in data set [8] is 458 mg/kg; in data set [14], over 100 mg/kg; in data set [21], 28.3 mg/kg. In [9], this compound displayed a CC50 of over 200 µM. Moreover, in data set [15], the time to peak (Tmax) amounted to 0.67 h. In data set [16], this compound showed a Cmax of 290 nM. Further, in data set [17], the inhibition result was “Active”. Moreover, in data set [18], the total exposure AUC(0-inf) is 4.89 µM·h. Also, in data set [22], the MRT was found to be 4.89 h.

As for `Cl.N`, in data set [23], the inhibition entry was “Active”.

In the case of `Clc1ccc(CN2CCCC3=C[C@H]4C[C@H](CN5CCCC[C@H]45)[C@@H]32)cc1`, the selectivity ratio in data set [3] was over 20.4; in data set [11], over 16.8. Also, the EC50 turned out to be 77.8 µM in data set [6], 11.9 µM in [13] and 9.8 µM in data set [20]. The CC50 in data set [9] was over 200 µM.
